In US11718605B2, “Heterocyclic compounds as immunomodulators” (Incyte Corporation, priority 2016, dated 2023):

What follows are compounds tested against PD-1/PD-L1 protein/protein interaction (Homo sapiens (Human), UniProt Q9NZQ7) (assay: PD-1/PD-L1 Homogeneous Time-Resolved Fluorescence (HTRF) Binding Assay). Details: recombinant human PD-L1 (19-238) His-tag 10 nM, human PD-1 (25-167) Fc tag 3 nM; 25° C., PBS pH 7.4.
Description: Example A. PD-1/PD-L1 Homogeneous Time-Resolved Fluorescence (HTRF) Binding Assay
The assays were conducted in a standard black 384-well polystyrene plate with a final volume of 20 μL. Inhibitors were first serially diluted in DMSO and then added to the plate wells before the addition of other reaction components. The final concentration of DMSO in the assay was 1%. The assays were carried out at 25° C. in the PBS buffer (pH 7.4) with 0.05% Tween-20 and 0.1% BSA. Recombinant human PD-L1 protein (19-238) with a His-tag at the C-terminus was purchased from AcroBiosystems (PD1-H5229). Recombinant human PD-1 protein (25-167) with Fc tag at the C-terminus was also purchased from AcroBiosystems (PD1-H5257). PD-L1 and PD-1 proteins were diluted in the assay buffer and 10 μL was added to the plate well. Plates were centrifuged and proteins were preincubated with inhibitors for 40 minutes. The incubation was followed by the addition of 10 μL of HTRF detection buffer supplemented with Europium cryptate-labeled anti-human IgG (PerkinElmer-AD0212) specific for Fc and anti-His antibody conjugated to SureLight®-Allophycocyanin (APC, PerkinElmer-AD0059H). After centrifugation, the plate was incubated at 25° C. for 60 min. before reading on a PHERAstar FS plate reader (665 nm/620 nm ratio). Final concentrations in the assay were—3 nM PD1, 10 nM PD-L1, 1 nM europium anti-human IgG and 20 nM anti-His-Allophycocyanin. IC50 determination was performed by fitting the curve of percent control activity versus the log of the inhibitor concentration using the GraphPad Prism 5.0 software.

Sequence of PD-1/PD-L1 protein/protein interaction (Q9NZQ7 19-238): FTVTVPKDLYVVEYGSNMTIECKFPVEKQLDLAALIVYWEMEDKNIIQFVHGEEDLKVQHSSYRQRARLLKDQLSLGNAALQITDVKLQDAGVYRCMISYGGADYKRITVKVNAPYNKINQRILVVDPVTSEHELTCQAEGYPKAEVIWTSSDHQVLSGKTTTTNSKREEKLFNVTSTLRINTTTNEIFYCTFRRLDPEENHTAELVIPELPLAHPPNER

Row | SMILES | IC50
1 | COc1cccc(-c2cccc(NC(=O)c3cc(CNCCO)cn(C)c3=O)c2C)c1F [Example 12, N-(2′-fluoro-3′-methoxy-2-methylbiphenyl-3-yl)-5-((2-hydroxyethylamino)methyl)-1-methyl-2-oxo-1,2-dihydropyridine-3-carboxamide] | ≤ 0.1 µM
2 | Cn1cc(CNCCO)cc(C(=O)Nc2cccc(-c3cccc4c3cnn4C)c2C#N)c1=O [Example 8, N-(2-cyano-3-(1-methyl-1H-indazol-4-yl)phenyl)-5-((2-hydroxyethylamino)methyl)-1-methyl-2-oxo-1,2-dihydropyridine-3-carboxamide] | ≤ 0.1 µM
3 | Cn1cc(CNCCO)cc(C(=O)Nc2cccc(-c3ccccc3)c2C#N)c1=O [Example 7, N-(2-cyanobiphenyl-3-yl)-5-{[(2-hydroxyethyl)amino]methyl}-1-methyl-2-oxo-1,2-dihydropyridine-3-carboxamide] | 0.1 to 0.5 µM
4 | CCn1cc(CNCCO)cc(C(=O)Nc2cccc(-c3ccccc3)c2C)c1=O [Example 10, 1-ethyl-5-{[(2-hydroxyethyl)amino]methyl}-N-(2-methylbiphenyl-3-yl)-2-oxo-1,2-dihydropyridine-3-carboxamide] | 0.1 to 0.5 µM
5 | CCn1cc(CN2CCCC[C@H]2C(=O)O)cc(C(=O)Nc2cccc(-c3ccccc3)c2C)c1=O [Example 9, (2S)-1-[(1-ethyl-5-{[(2-methylbiphenyl-3-yl)amino]carbonyl}-6-oxo-1,6-dihydropyridin-3-yl)methyl]piperidine-2-carboxylic acid] | 0.5 to 10 µM
6 | Cn1cc(CNCCO)cc(C(=O)Nc2cccc(-c3ccc4c(c3)OCCO4)c2C#N)c1=O [Example 4, N-[2-cyano-3-(2,3-dihydro-1,4-benzodioxin-6-yl)phenyl]-5-{[(2-hydroxyethyl)amino]methyl}-1-methyl-2-oxo-1,2-dihydropyridine-3-carboxamide] | ≤ 0.1 µM
7 | Cc1c(NC(=O)c2cc(CN3CCCC[C@H]3C(=O)O)cn(C)c2=O)cccc1-c1ccccc1 [Example 1, (2S)-1-[(1-methyl-5-{[(2-methylbiphenyl-3-yl)amino]carbonyl}-6-oxo-1,6-dihydropyridin-3-yl)methyl]piperidine-2-carboxylic acid] | ≤ 0.1 µM
8 | Cc1c(NC(=O)c2cc(CNCCO)cn(C)c2=O)cccc1-c1ccc2c(c1)OCCO2 [Example 13, N-[3-(2,3-dihydro-1,4-benzodioxin-6-yl)-2-methylphenyl]-5-{[(2-hydroxyethyl)amino]methyl}-1-methyl-2-oxo-1,2-dihydropyridine-3-carboxamide] | ≤ 0.1 µM
9 | Cc1c(NC(=O)c2cc(CNCCO)cn(C)c2=O)cccc1-c1cccc2c1cnn2C [Example 11, 5-{[(2-hydroxyethyl)amino]methyl}-1-methyl-N-[2-methyl-3-(1-methyl-1H-indazol-4-yl)phenyl]-2-oxo-1,2-dihydropyridine-3-carboxamide] | ≤ 0.1 µM
10 | Cn1cc(CNCCO)cc(C(=O)Nc2cccc(-c3ccccc3F)c2C#N)c1=O [Example 6, N-(2-cyano-2′-fluorobiphenyl-3-yl)-5-{[(2-hydroxyethyl)amino]methyl}-1-methyl-2-oxo-1,2-dihydropyridine-3-carboxamide] | ≤ 0.1 µM
11 | COc1cccc(-c2cccc(NC(=O)c3cc(CNCCO)cn(C)c3=O)c2C#N)c1 [Example 5, N-(2-cyano-3′-methoxybiphenyl-3-yl)-5-{[(2-hydroxyethyl)amino]methyl}-1-methyl-2-oxo-1,2-dihydropyridine-3-carboxamide] | ≤ 0.1 µM
12 | Cn1cc(CNCCO)cc(C(=O)Nc2cccc(C3CCCCC3)c2C#N)c1=O [Example 3, N-(2-cyano-3-cyclohexylphenyl)-5-{[(2-hydroxyethyl)amino]methyl}-1-methyl-2-oxo-1,2-dihydropyridine-3-carboxamide] | 0.1 to 0.5 µM
13 | Cc1c(NC(=O)c2cc(CNCCO)cn(C)c2=O)cccc1-c1ccccc1 [Example 2, 5-{[(2-hydroxyethyl)amino]methyl}-1-methyl-N-(2-methylbiphenyl-3-yl)-2-oxo-1,2-dihydropyridine-3-carboxamide] | ≤ 0.1 µM
